The test system of one test is AMPK. Put plainly: Measurement of AMPK activity by Western blot in C2C12 cells. It counts as cell-based. Also noted: key to AMPK activity (degree of phosphorylation of serine-79 and threonine-172): fold increase in threonine-172 phosphorylation; AMPK activity (degree of phosphorylation of serine-79): unit not given here. The settings on record: 10 μM for 50 minutes; for AMPK activity (degree of phosphorylation of serine-79 and threonine-172): no superscript: Western blot of serine-79 and threonine-172 phosphorylation; for AMPK activity (degree of phosphorylation of serine-79): footnote a: Western blot of serine-79 phosphorylation; for AMPK activity (class: degree of phosphorylation of threonine-172): strong/mild/weak. A digest of the protocol: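 Western blot readout of AMPK Thr-172 and ACC Ser-79 phosphorylation, normalised against ERK, served as the activity measure. Cells were C2C12 after differentiation, treated 50 minutes with 10 μM test material. Grading by Thr-172 increase: ≥3-fold strong, 1-3-fold mild, <1-fold weak.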

The subject of a further test is C2C12 muscle cells. In words: Analysis of glucose absorption (2-deoxyglucose) in differentiated C2C12 muscle cells. In kind it is cell-based. The note with it: test materials 10 μM, times relative to control group. The method, boiled down:
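Uptake of 0.2 μCi 2-deoxyglucose over 20 min, counted radiometrically in lysed cells. Before tracer, compounds (10 μM) were applied for 30 min to C2C12 cells differentiated 6 days in 1% serum and equilibrated 3 h in 5 mM glucose KRB.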

As for `c1ccc2c(NCc3ccc4c(c3)OCO4)ncnc2c1` [Compound 407, Benzo[1,3]dioxol-5-ylmethylquinazolino-4-ylamine], in the test on AMPK, the “AMPK activity (degree of phosphorylation of serine-79 and threonine-172)” value amounted to 1.3. In the test with C2C12 muscle cells, this molecule returned a Glucose absorption of 1.5.

Turning to `CCSc1nc(NCCN2CCOCC2)c2ccccc2n1` [Compound 11, (2-Ethylsulfanylquinazolino-4-yl)-(2-morpholino-4-ylethyl)-amine], the “AMPK activity (degree of phosphorylation of serine-79)” value with AMPK is 3.2^a. Besides, the Glucose absorption with C2C12 muscle cells worked out at 1.0.

On to `Cc1nc(NCCCCc2ccccc2)c2ccccc2n1` [Compound 168, (2-Methylquinazolino-4-yl)-(4-phenylbutyl)-amine], for which, in the test on AMPK, the “AMPK activity (degree of phosphorylation of serine-79 and threonine-172)” value amounted to 8.4; the “AMPK activity (class: degree of phosphorylation of threonine-172)” value is “strong (“strong” means that the degree of phosphorylation of threonine-172 increased by 3 times or more)”. In the test on C2C12 muscle cells, this molecule came in with a Glucose absorption of 3.6.

In the case of `CCSc1nc(NCCCCc2ccccc2)c2ccccc2n1` [Compound 30, (2-Ethylsulfanylquinazolino-4-yl)-(4-phenylbutyl)-amine], in the test with AMPK, the “AMPK activity (class: degree of phosphorylation of threonine-172)” value was “mild (“mild” means that the degree of phosphorylation of threonine-172 increased by 1 to 3 times)”. Moreover, the Glucose absorption in the test on C2C12 muscle cells came to 1.8.

`COc1ccc(CNc2nc(C(C)c3ccccc3)nc3ccccc23)cc1OC` (centres unmarked) [Compound 377, (3,4-Dimethoxybenzyl)-[2-(1-phenylethyl)-quinazolino-4-yl]-amine]: the “AMPK activity (degree of phosphorylation of serine-79 and threonine-172)” value in the test on AMPK came to 2.3. The Glucose absorption in the test on C2C12 muscle cells worked out at 1.1.

`Fc1ccc(CCNc2nc(-c3ccccc3)nc3ccccc23)cc1F` [Compound 128, [2-(3,4-Difluorophenyl)-ethyl]-(2-phenylquinazolino-4-yl)-amine]: in the test with AMPK, the “AMPK activity (degree of phosphorylation of serine-79 and threonine-172)” value was 1.7; the “AMPK activity (class: degree of phosphorylation of threonine-172)” value is “strong (“strong” means that the degree of phosphorylation of threonine-172 increased by 3 times or more)”. The same molecule displayed a Glucose absorption in the test on C2C12 muscle cells of 2.3.

Turning to `CCSc1nc(NCc2cccc(C(F)(F)F)c2)c2ccccc2n1` [Compound 26, (2-Ethylsulfanylquinazolino-4-yl)-(3-trifluoromethylbenzyl)-amine], the “AMPK activity (class: degree of phosphorylation of threonine-172)” value in the test on AMPK is given as “mild (“mild” means that the degree of phosphorylation of threonine-172 increased by 1 to 3 times)”. Besides, the Glucose absorption in the test with C2C12 muscle cells is listed as 1.7.

`O=[N+]([O-])c1cccc(CNc2nc(-c3ccccc3)nc3ccccc23)c1` [Compound 116, (3-Nitrobenzyl)-(2-phenylquinazolino-4-yl)-amine]: in the test with AMPK, the “AMPK activity (degree of phosphorylation of serine-79 and threonine-172)” value is reported as 2.0; the “AMPK activity (class: degree of phosphorylation of threonine-172)” value is given as “strong (“strong” means that the degree of phosphorylation of threonine-172 increased by 3 times or more)”. The molecule also registered a Glucose absorption with C2C12 muscle cells of 2.5.

Regarding `Fc1ccccc1CCNc1nc(-c2ccccc2)nc2ccccc12` [Compound 140, [2-(2-Fluorophenyl)-ethyl]-(2-phenylquinazolino-4-yl)-amine], in the test with AMPK, the “AMPK activity (degree of phosphorylation of serine-79 and threonine-172)” value amounted to 3.1; the “AMPK activity (class: degree of phosphorylation of threonine-172)” value is “strong (“strong” means that the degree of phosphorylation of threonine-172 increased by 3 times or more)”. The same molecule had a Glucose absorption with C2C12 muscle cells of 2.7.

With `COc1ccc(CNc2nc(N3CCN(C)CC3)nc3ccccc23)cc1OC` [Compound 302, (3,4-Dimethoxybenzyl)-[2-(4-methylpiperazino-1-yl)-quinazolino-4-yl]-amine], in the test on AMPK, the “AMPK activity (degree of phosphorylation of serine-79 and threonine-172)” value was 1.2. The molecule further displayed a Glucose absorption with C2C12 muscle cells of 0.7.

In the case of `Clc1ccc(CCNc2nc(-c3ccccc3)nc3ccccc23)cc1` [Compound 123, [2-(4-chlorophenyl)-ethyl]-(2-phenylquinazolino-4-yl)-amine], in the test on AMPK, the “AMPK activity (degree of phosphorylation of serine-79 and threonine-172)” value is reported as 2.3; the “AMPK activity (class: degree of phosphorylation of threonine-172)” value is reported as “strong (“strong” means that the degree of phosphorylation of threonine-172 increased by 3 times or more)”. In addition, in the test on C2C12 muscle cells, the Glucose absorption is on record as 2.1.

As for `COc1ccccc1CNc1nc(C2CC2)nc2ccccc12` [Compound 382, (2-Cyclopropylquinazolino-4-yl)-(2-methoxybenzyl)-amine], the “AMPK activity (degree of phosphorylation of serine-79 and threonine-172)” value in the test on AMPK is on record as 2.2. Moreover, the Glucose absorption in the test with C2C12 muscle cells is 1.2.

For `COc1ccccc1CNc1nc(N2CCCCC2)nc2ccccc12` [Compound 276, (2-Methoxybenzyl)-(2-piperidino-1-ylquinazolino-4-yl)-amine], in the test on AMPK, the “AMPK activity (degree of phosphorylation of serine-79 and threonine-172)” value is 1.9. Also, the Glucose absorption in the test on C2C12 muscle cells is reported as 0.8.

In the case of `c1ccc(CNc2nc(C3CCCCC3)nc3ccccc23)cc1` [Compound 199, Benzyl-(2-cyclohexylquinazolino-4-yl)-amine], in the test on AMPK, the “AMPK activity (degree of phosphorylation of serine-79 and threonine-172)” value came out at 2.3; the “AMPK activity (class: degree of phosphorylation of threonine-172)” value is recorded as “strong (“strong” means that the degree of phosphorylation of threonine-172 increased by 3 times or more)”. In addition, the Glucose absorption in the test with C2C12 muscle cells is on record as 2.1.

Take `CCCc1nc(NCc2cc(OC)cc(OC)c2)c2ccccc2n1` [Compound 398, (3,5-Dimethoxybenzyl)-(2-propylquinazolino-4-yl)-amine]: the “AMPK activity (degree of phosphorylation of serine-79 and threonine-172)” value with AMPK worked out at 7.8. The same molecule yielded a Glucose absorption in the test with C2C12 muscle cells of 1.4.

In the case of `Brc1cccc(CNc2nc(-c3ccccc3)nc3ccccc23)c1` [Compound 153, (3-Bromobenzyl)-(2-phenylquinazolino-4-yl)-amine], in the test with AMPK, the “AMPK activity (degree of phosphorylation of serine-79 and threonine-172)” value is 1.3; the “AMPK activity (class: degree of phosphorylation of threonine-172)” value was “mild (“mild” means that the degree of phosphorylation of threonine-172 increased by 1 to 3 times)”. For the same molecule, the Glucose absorption in the test on C2C12 muscle cells is 2.4.

Take `CC(C)(C)c1nc(NCCCCc2ccccc2)c2ccccc2n1` [Compound 192, (2-tert-Butylquinazolino-4-yl)-(4-phenylbutyl)-amine]: in the test on AMPK, the “AMPK activity (degree of phosphorylation of serine-79 and threonine-172)” value came out at 6.5; the “AMPK activity (class: degree of phosphorylation of threonine-172)” value is “strong (“strong” means that the degree of phosphorylation of threonine-172 increased by 3 times or more)”. Moreover, in the test with C2C12 muscle cells, the Glucose absorption turned out to be 2.1.

As for `COc1ccccc1CNc1nc(C(OC)c2ccccc2)nc2ccccc12` (centres unmarked) [Compound 360, (2-Methoxybenzyl)-[2-(methoxyphenylmethyl)-quinazolino-4-yl]-amine], in the test with AMPK, the “AMPK activity (degree of phosphorylation of serine-79 and threonine-172)” value came out at 2.2. This molecule displayed a Glucose absorption in the test on C2C12 muscle cells of 1.4.

Consider `CC(CO)Nc1nc(-c2ccccc2)nc2ccccc12` (centres unmarked) [Compound 112, 2-(2-Phenylquinazolino-4-ylamino)-propane-1-ol], for which, in the test with AMPK, the “AMPK activity (degree of phosphorylation of serine-79 and threonine-172)” value came out at 1.7; the “AMPK activity (class: degree of phosphorylation of threonine-172)” value was “strong (“strong” means that the degree of phosphorylation of threonine-172 increased by 3 times or more)”. Besides, the Glucose absorption in the test on C2C12 muscle cells is 1.9.

In the case of `COc1ccc(CNc2nc(C(C)c3ccccc3)nc3ccccc23)cc1` (centres unmarked) [Compound 373, (4-Methoxybenzyl)-[2-(1-phenylethyl)-quinazolino-4-yl]-amine], in the test with AMPK, the “AMPK activity (degree of phosphorylation of serine-79 and threonine-172)” value stood at 2.1. The same molecule had a Glucose absorption in the test with C2C12 muscle cells of 1.1.

As to `COc1ccc(CNc2nc(N3CCOCC3)nc3ccccc23)cc1` [Compound 285, (4-Methoxybenzyl)-(2-morpholino-4-ylquinazolino-4-yl)-amine], the “AMPK activity (degree of phosphorylation of serine-79 and threonine-172)” value in the test on AMPK is recorded as 1.6. Further, the Glucose absorption with C2C12 muscle cells was determined as 0.8.

With `COc1cccc(CNc2nc(C(C)c3ccccc3)nc3ccccc23)c1` (centres unmarked) [Compound 372, (3-Methoxybenzyl)-[2-(1-phenylethyl)-quinazolino-4-yl]-amine], the “AMPK activity (degree of phosphorylation of serine-79 and threonine-172)” value in the test with AMPK is reported as 6.3. Further, the Glucose absorption in the test with C2C12 muscle cells is given as 1.1.

In the case of `c1ccc(-c2nc(NCCN3CCCCC3)c3ccccc3n2)cc1` [Compound 101, (2-Phenylquinazolino-4-yl)-(2-piperidino-1-ylethyl)-amine], the “AMPK activity (class: degree of phosphorylation of threonine-172)” value in the test on AMPK was “weak (“weak” means that the degree of phosphorylation of threonine-172 increased by less than 1 time)”. This molecule also returned a Glucose absorption in the test on C2C12 muscle cells of 1.5.

In the case of `ClC(Cl)(Cl)c1nc(NCCN2CCCCC2)c2ccccc2n1` [Compound 4, (2-Piperidino-1-ylethyl)-(2-trichloromethylquinazolino-4-yl)-amine], the “AMPK activity (degree of phosphorylation of serine-79)” value in the test with AMPK is listed as 3.5^a. The same molecule came in with a Glucose absorption in the test on C2C12 muscle cells of 1.2.

`COc1cccc(CNc2nc(C(C)c3ccccc3)nc3ccccc23)c1OC` (centres unmarked) [Compound 375, (2,3-Dimethoxybenzyl)-[2-(1-phenylethyl)-quinazolino-4-yl]-amine]: the “AMPK activity (degree of phosphorylation of serine-79 and threonine-172)” value in the test on AMPK worked out at 5.2. In addition, the Glucose absorption in the test on C2C12 muscle cells is 1.1.

For the molecule `CC(C)CC(C)Nc1nc(-c2ccccc2)nc2ccccc12` (centres unmarked) [Compound 125, (1,3-Dimethylbutyl)-(2-phenylquinazolino-4-yl)-amine], in the test with AMPK, the “AMPK activity (degree of phosphorylation of serine-79 and threonine-172)” value was 1.8; the “AMPK activity (class: degree of phosphorylation of threonine-172)” value is “strong (“strong” means that the degree of phosphorylation of threonine-172 increased by 3 times or more)”. Also, the Glucose absorption in the test on C2C12 muscle cells was found to be 2.8.

Regarding `c1ccc(-c2nc(NCCN3CCOCC3)c3ccccc3n2)cc1` [Compound 106, (2-Morpholino-4-ylethyl)-(2-phenylquinazolino-4-yl)-amine], in the test with AMPK, the “AMPK activity (degree of phosphorylation of serine-79 and threonine-172)” value came out at 1.3; the “AMPK activity (class: degree of phosphorylation of threonine-172)” value is recorded as “mild (“mild” means that the degree of phosphorylation of threonine-172 increased by 1 to 3 times)”. Further, the Glucose absorption with C2C12 muscle cells stood at 1.8.

Values taken from US20080207614A1, “QUINAZOLINE DERIVATIVES FOR THE TREATMENT AND PREVENTION OF DIABETES AND OBESITY” (SK CHEMICALS CO., LTD., priority 2004, published 2008).
